Experiment: Henry solubility constant Hcp at 298.15 K (mol/(m3 Pa))
Settings: reference: Dunnivant et al. (1988)

| SMILES | Henry solubility constant Hcp |
| --- | --- |
| Clc1cc(Cl)c(-c2cc(Cl)c(Cl)cc2Cl)cc1Cl [2,2',4,4',5,5'-hexachlorobiphenyl] | 0.075 |
| Clc1cccc(-c2cccc(Cl)c2)c1 [3,3'-dichlorobiphenyl] | 0.042 |
| Clc1ccc(-c2ccc(Cl)cc2)cc1 [4,4'-dichlorobiphenyl] | 0.05 |
| Clc1cccc(-c2cc(Cl)ccc2Cl)c1 [2,3',5-trichlorobiphenyl] | 0.03 |
| Clc1ccccc1-c1ccccc1Cl [2,2'-dichlorobiphenyl] | 0.029 |
| Clc1cccc(Cl)c1-c1c(Cl)cccc1Cl [2,2',6,6'-tetrachlorobiphenyl] | 0.018 |
| Clc1ccc(Cl)c(-c2cc(Cl)c(Cl)cc2Cl)c1 [2,2',4,5,5'-pentachlorobiphenyl] | 0.039 |
| Clc1ccc(-c2ccccc2)cc1Cl [3,4-dichlorobiphenyl] | 0.048 |
| Clc1cccc(-c2cccc(Cl)c2Cl)c1Cl [2,2',3,3'-tetrachlorobiphenyl] | 0.049 |
| Clc1ccc(Cl)c(-c2cc(Cl)ccc2Cl)c1 [2,2',5,5'-tetrachlorobiphenyl] | 0.029 |
| Clc1ccc(-c2ccc(Cl)c(Cl)c2)cc1Cl [3,3',4,4'-tetrachlorobiphenyl] | 0.1 |
| Clc1cc(Cl)c(-c2ccccc2)c(Cl)c1 [2,4,6-trichlorobiphenyl] | 0.015 |
| Clc1ccc(Cl)c(-c2ccccc2)c1 [2,5-dichlorobiphenyl] | 0.025 |
| Clc1cc(Cl)c(-c2c(Cl)cc(Cl)cc2Cl)c(Cl)c1 [2,2',4,4',6,6'-hexachlorobiphenyl] | 0.013 |

Source: Sander's compilation of Henry's law constants (doi:10.1021/es00169a013)
